Key:
[1] = tested on: Human adipose tissue-derived mesenchymal stem cells; experiment: Oil red O staining after adipocyte differentiation-induction of mesenchymal stem cells grown with β-NMN (Example 9); assay type: cell-based; conditions: growth medium supplemented with 0.1 mM or 0.25 mM of β-NMN; 14th day of adipocyte differentiation-induction; compared with 0 mM
Excerpt: The effects of culturing in the presence of β-NMN before adipocyte differentiation-induction of mesenchymal stern cells were examined. In the same manner as in Example 8, Human adipose tissue-derived mesenchymal stem cells (manufactured by Lonza, Cat #PT5006) were used as the mesenchymal stem cells. As a growth culture medium, a culture medium prepared by appropriately adding β-MNM to “MSCGM Bullet Kit” (manufactured by Lonza, Cat #PT3001) was used as in Example 8. As an adipocyte differentiation-inducing culture medium, a culture medium prepared by adjusting a DMEM-High Glucose medium to have a final concentration of fetal bovine serum of 10% by volume, a final concentration of IBMX of 0.5 mM, a final concentration of dexamethasone of 1 μM, a final concentration of indomethacin of 200 μM, and a final concentration of penicillin-streptomycin of 0.1% was used. The culture of the mesenchymal stem cells before differentiation-induction was performed in the same manner as in Example 8. The differentiation induction was performed in the same manner as in Example 8 except that the adipocyte differentiation-inducing culture medium was used instead of the bone differentiation-inducing culture medium. On the 14th day from the initiation of the differentiation-induction, the staining test and the cell RNA recovery were performed. […]

iPS cells 201B7 strain = experiment: Flow cytometry of Nestin/PAX6 after ectodermal differentiation-induction following undifferentiated culture with β-NMN (Example 7); assay type: cell-based, human; conditions: β-NMN 0.25 or 1 mM before ectodermal differentiation-induction; 7th or 9th day; versus absence of β-NMN
Experimental: The effects of culturing in the presence of β-NMN before induction of differentiation on the ectodermal differentiation-induction of iPS cells was examined. As the iPS cells, the 201B7 strain was used. The iPS cells were cultured in a culture dish in the same manner as in Example 5, and when the confluent reached 70 to 80%, the iPS cells were detached from the culture dish and collected. The collected iPS cells were seeded at 3×10^5 cells/well in a 24-well plate coated with Matrigel (manufactured by Corning Incorporated) according to the manufacturer's protocol. The cells in the 24-well plate were cultured for 1 day in a culture medium prepared by removing β-NMN from the culture medium when culturing in the culture dish and adjusting to have a final concentration of Rock inhibitor of 10 μM. From the 1st day after seeding, the medium was replaced every day with a culture medium for ectodermal differentiation-induction of “STEMdiff Trilineage Differentiation kit” (manufactured by STEMCELL Technologies). In the same manner as in Example 2, the cells sampled on the 7th or 9th day after seeding were stained with a fluorescently labeled anti-Nestin antibody and a fluorescently labeled anti-PAX6 antibody, and a flow cytometer was used to analyze the fluorescence intensity of the anti-Nestin antibody and the fluorescence intensity of the anti-PAX6 antibody in each sample. […]

[2] = tested on: Human adipose tissue-derived mesenchymal stem cells; experiment: Alizarin Red S staining after bone differentiation-induction of mesenchymal stem cells grown with β-NMN (Example 8); assay type: cell-based; conditions: growth medium supplemented with 0.1 mM or 0.25 mM of β-NMN; 14 days after initiation of bone differentiation-induction; compared with 0 mM
Excerpt: The effects of culturing in the presence of β-NMN before bone differentiation-induction of mesenchymal stern cells were examined. Human adipose tissue-derived mesenchymal stem cells (manufactured by Lonza, Cat #PT5006) were used as the mesenchymal stem cells. As a growth medium, a culture medium prepared by appropriately adding β-MNM to “MSCGM Bullet Kit” (manufactured by Lonza, Cat #PT3001) was used. As a bone differentiation-inducing culture medium, a culture medium prepared by adjusting an α-MEM culture medium to have a final concentration of fetal bovine serum of 10% by volume, a final concentration of dexamethasone of 10 nM, a final concentration of β-glycerophosphate of 10 mM, a final concentration of ascorbic acid of 50 μg/mL, and a final concentration of penicillin-streptomycin of 0.1%. The mesenchymal stem cells were seeded in a culture dish at 5×10^3 cells/cm^2 and statically cultured in a growth culture medium not containing β-MNM at 37° C., 5% by volume (CO2) for 1 day. From one day after seeding, the culture medium was replaced every 2 days with a growth culture medium adjusted to have a final concentration of β-MNM of 0, 0.1, or 0.25 mM. Further, when the cell density in the culture dish reached 80 to 90% of the confluent, the cells were passaged. […]

NC(=O)c1ccc[n+]([C@@H]2O[C@H](COP(=O)([O-])O)[C@@H](O)[C@H]2O)c1 [β-NMN, β-nicotinamide mononucleotide]
accumulation of lipid droplets (oil red O staining) [1]: more accumulation of lipid droplets | ratio of Nestin-positive PAX6-positive cells (iPS cells 201B7 strain): no clear difference | calcium deposition (Alizarin Red S staining) [2]: strongly observed
